{"source": "patent US9918968B2", "about": "“Rapamycin analogs targeting proteasome function in the treatment of cancer” (THE BOARD OF REGENTS OF THE UNIVERSITY OF TEXAS SYSTEM, priority 2013, dated 2018)", "key": {"[1]": {"test_system": "T1, human 20S proteasome, PGPH peptidase", "T1 construct": "purchased Enzo LifeSciences", "test": "PGPH peptidase activity of purified human 20S proteasome (CbzLLE-MCA)", "assay_type": "biochemical", "protocol": "(§1) Human purified proteasome complexes were purchased from Enzo LifeSciences or Boston Biochemicals (19S complex). BODIPY-casein (Invitrogen/Molecular Probes) was used as a model protein substrate, with increasing fluorescence of BODIPY labeled peptide products of degradation monitored for up to 8 hours at 37° C. The peptidase activity of the enzyme was measured as arbitrary intensity units of the released fluorescent group 7-amino-4-methylcoumarin (AMC) from peptide substrates, as described. The common substrates specific for the three kinds of active sites: succinyl-LeuLeuValTyr-7-amido-4-methylcoumarin (Suc-LLVY-MCA; for the ChT-L activity; Bachem), butoxycarbonyl-LeuArgArg-MCA (BocLRR-MCA; for T-L; Bachem) and carbobenzoxy-LeuLeuGlu-MCA (CbzLLE-MCA; for PGPH; Enzo Life Sciences International, Inc.) were used at 100 μM final concentrations, unless stated otherwise (Gaczynska and Osmulski, 2005). Proteasome substrates, rapamycin, its derivatives, and competing peptides were stocked in DMSO and diluted 100-fold in the reaction mixtures. The Rpt5 and PA200 C-terminal peptides were synthesized in the Departmental Peptide Synthesis Core using the standard SPPS chemistry. To activate the latent 20S proteasome, 0.005% (final concentration) of sodium dodecyl sulfate (SDS) was used. The reactions were carried out in 96 well plates, with 2.3 nM proteasome and other components as indicated dissolved in 50 mM Tris-HCl buffer (pH 8.0) and incubated at 37° C. for up to 1 hour. The fluorescence of products was monitored every 2 minutes with a Fluoroskan Ascent plate reader. Reaction rates were calculated from smoothed linear segment of kinetic curves using OriginPro 8.6 (OriginLabs, Northampton, Mass.). For the determination of an inhibition type, at least six distinct substrate concentrations and two inhibitor concentrations were used. The kinetic parameters of inhibition were analyzed in terms of the Michaelis-Menten formalism using the enzyme kinetic module of SigmaPlot v.12 (Systat Software, Inc, San Jose, Calif.) to perform the respective calculations.\nIC50 values (a drug concentration causing 50% inhibition of the indicated enzymatic activity) were calculated for ChT-L and PGPH peptidases. Kd (dissociation constant) and Bmax (maximal activation effect achieved; in % above the control activity) values were calculated for the T-L peptidase. Mean±SD from n=2 or 3 experiments, or data from representative experiments set in duplicates or triplicates, are presented in the table. All three peptidase activities changed by no more than ±20%, without a concentration-dependent trend, upon treatment with up to 10 μM of rapamycin unrelated mTOR inhibitors PI-103 or NVP-BEZ235, in two independent experiments."}, "[2]": {"test_system": "T2, 20S core with 19S, 11S, tRpt5 or tPA200", "T2 construct": "purchased Enzo LifeSciences (20S, 11S); Boston Biochemicals (19S complex)", "test": "Activation of 20S core ChT-L activity by α face ligands (19S, 11S, tRpt5, tPA200)", "assay_type": "biochemical, human", "settings": "10 μM derivative", "protocol": "as §1\nDe novo assembly of 19S from subunits is a complex process assisted by chaperones. In vitro, and likely also in cells, the 26S can also be reconstructed from 20S and the already-assembled 19S particle in the presence of ATP (Smith et al., 2005). Enhancement of the peptidase activities of the core proteasome is an established test for efficiency of the in vitro reconstruction. […] In contrast, a pretreatment of 20S with 5 μM rapamycin before adding ATP and 19S totally abrogated the activation, leaving the proteasome almost 40% inhibited instead (FIG. 6)."}, "[3]": {"test_system": "MCF7 breast carcinoma cells", "test": "Live/dead cell count, MCF7 cells", "assay_type": "cell-based, human", "settings": "seco-rapamycin alone, 48 hrs, 100% = total cell count in control", "protocol": "Culture Collection; ATCC) were cultured according to ATCC specifications: HeLa.S3 cervical adenocarcinoma, MCF7 breast adenocarcinoma, MDA-MB-231 breast adenocarcinoma (representing triple negative breast cancer), and RPMI 8226 myeloma. The cells were grown in 24 or 12-well cell culture plates. When the cells reached about 60% confluency (surface-growing HeLa.S3,MCF7 and MDA-MB-231) or a density of about 7×10^5 (suspension-growing RPMI 8226), the inhibitors dissolved in DMSO or the solvent (DMSO) diluted in respective culture medium were added and the cells were further cultured for additional 48 hours. […] The final concentration of the solvent was 1% (vol/vol). The number of live and dead cells after the treatment was approximated with calcein AM and ethidium homodimer (LiveDead test, Invitrogen) according to manufacturer's protocol, or by a Trypan Blue exclusion assay. […] Fluorescence of calcein and DNA-bound ethidium homodimer was measured with Fluoroskan Ascent plate reader, at 485 nm (excitation)/538 nm (emission) and 530 nm/619 nm, respectively. […] Alternatively, after cell treatment the medium was removed, the surface growing cells were overlaid with Trypan Blue solution, and the colorless (live) and blue-colored (dead) cells were counted under the inverted microscope."}}, "data": [{"molecule": "CO[C@@H](C[C@@H]1CC[C@@H](C)[C@](O)(C(=O)C(=O)N2CCCC[C@H]2C(=O)[O-])O1)/C(C)=C/C=C/C=C/[C@@H](C)C[C@@H](C)C(=O)[C@H](OC)[C@H](O)/C(C)=C/[C@@H](C)C(=O)/C=C/[C@H](C)C[C@@H]1CC[C@@H](O)[C@H](OC)C1.[Na+]", "note": "[seco-rapamycin]", "values": [{"measurement": "inhibition of post-acidic (PGPH) cleavages", "setting": "[1]; 5 μM", "value": "~50", "unit": "%"}, {"measurement": "IC50", "setting": "[1]; latent human 20S proteasome", "value": "6.45 ± 0.78", "unit": "µM"}, {"measurement": "lowering of activation by tRpt5", "setting": "[2]; 10 μM tRpt5", "value": "about 30%"}, {"measurement": "inhibition of proteasome with or without tPA200", "setting": "[2]; presence or absence of 10 μM tPA200", "value": "about 40%"}, {"measurement": "dead cells count", "setting": "[3]", "value": "about 60%"}]}]}
